Where a name gives a salt, the structure may show the parent alone.
System: Sphaerotheca fuliginea
Assay: Sphaerotheca test (cucumber)/protective
Format: in vivo
Settings: cucumber plants, protective spray; application rate 750 g/ha; evaluation 7 days after inoculation
Experimental: (§1) To produce a suitable preparation of active compound, 1 part by weight of active compound is mixed with the stated amounts of solvent and emulsifier, and the concentrate is diluted with water to the desired concentration.
To test for protective activity, young cucumber plants are sprayed with the preparation of active compound at the stated application rates. One day after the treatment, the plants are inoculated with a spore suspension of Sphaerotheca fuliginea. The plants are then placed in a greenhouse at 70% relative atmospheric humidity and a temperature of 23° C.
Evaluation is carried out 7 days after the inoculation. 0% means an efficacy which corresponds to that of the control, whereas an efficacy of 100% means that no infection is observed.
Work on `Cc1nn(C)c(F)c1C(=O)Nc1ccccc1CCC(C)C` [drawing 128] yielded an Efficacy in % of 100%. With `Cc1ccsc1C(=O)Nc1ccccc1CCC(C)(C)C` [drawing 129] the Efficacy in % was 100%. `CC(C)CCc1ccccc1NC(=O)c1ccccc1C(F)(F)F` [drawing 130] gave an Efficacy in % of 100%. `Cc1ccccc1C(=O)Nc1ccccc1CCC(C)(C)C` [drawing 131] gave an Efficacy in % of 100%.

System: Venturia inaequalis
Assay: Venturia test (apple)/protective
Format: in vivo
Settings: apple plants, protective spray, application rate 100 g/ha, read-out: Efficacy in %
Experimental: [table] To produce a suitable preparation of active compound, 1 part by weight of active compound is mixed with the stated amounts of solvents and emulsifier, and the concentrate is diluted with water to the desired concentration. To test for protective activity, young plants are sprayed with the preparation of active compound at the stated application rates. After the spray coating has dried on, the plants are inoculated with an aqueous conidia suspension of the apple scab pathogen Venturia inaequalis and then remain in an incubation cabin at about 20° C. and 100% relative atmospheric humidity for 1 day. The plants are then placed in a greenhouse at about 21° C. and a relative atmospheric humidity of about 90%.
Compound `Cc1nn(C)c(F)c1C(=O)Nc1ccccc1CCC(C)C` [drawing 101] has a pest or weed control at 100 g/ha of 96%. With `Cc1nn(C)c(F)c1C(=O)Nc1ccccc1CCC(C)(C)C` [drawing 102] the pest or weed control at 100 g/ha was 100%. `Cc1ccsc1C(=O)Nc1ccccc1CCC(C)(C)C` [drawing 103] showed a pest or weed control at 100 g/ha of 99%. `Cc1ccccc1C(=O)Nc1ccccc1CCC(C)(C)C` [drawing 104] gave a pest or weed control at 100 g/ha of 97%. Compound `CCC(C)(C)CCc1ccccc1NC(=O)c1c(C)nn(C)c1F` [drawing 105] has a pest or weed control at 100 g/ha of 100%. Work on `CCC(C)(C)CCc1ccccc1NC(=O)c1cn(C)nc1C(F)F` [drawing 106] yielded a pest or weed control at 100 g/ha of 100%. With `Cn1cc(C(=O)Nc2ccccc2CCC(C)(C)C)c(C(F)F)n1` [drawing 107] the pest or weed control at 100 g/ha was 100%. For `Cn1nc(C(F)(F)F)c(C(=O)Nc2ccccc2CCC(C)(C)C)c1F` [drawing 108], the pest or weed control at 100 g/ha was 100%. `Cn1cc(C(=O)Nc2ccc(F)cc2CCC(C)(C)C)c(C(F)F)n1` [drawing 109] gave a pest or weed control at 100 g/ha of 100%.

System: Puccinia recondita
Assay: Puccinia test (wheat)/curative
Format: in vivo
Settings: 192 h, wheat plants, curative spray 48 hours after inoculation, application rate 500 g/ha, evaluation 8 days after inoculation, read-out: Efficacy in %
Experimental: as §1
To test for curative activity, young plants are sprayed with a conidia suspension of Puccinia recondita. The plants remain in an incubation cabin at 20° C. and 100% relative atmospheric humidity for 48 hours. The plants are then sprayed with the preparation of active compound at the stated application rates.
The plants are then placed in a greenhouse at a temperature of about 20° C. and a relative atmospheric humidity of 80% to promote the development of rust pustules.
Evaluation is carried out 8 days after the inoculation. 0% means an efficacy which corresponds to that of the control, whereas an efficacy of 100% means that no infection is observed.
For `Cc1ccccc1C(=O)Nc1ccccc1CCC(C)C`, the pest or weed control at 500 g/ha was 100%. For `Cc1nn(C)c(F)c1C(=O)Nc1ccccc1CCC(C)C` [drawing 119], the pest or weed control at 500 g/ha was 100%. Work on `Cc1nn(C)c(F)c1C(=O)Nc1ccccc1CCC(C)(C)C` [drawing 120] yielded a pest or weed control at 500 g/ha of 100%. `Cc1ccsc1C(=O)Nc1ccccc1CCC(C)(C)C` [drawing 121] gave a pest or weed control at 500 g/ha of 100%. In the case of `CC(C)CCc1ccccc1NC(=O)c1ccccc1C(F)(F)F` [drawing 122], the pest or weed control at 500 g/ha was 100%. With `CCC(C)(C)CCc1ccccc1NC(=O)c1c(C)nn(C)c1F` [drawing 124] the pest or weed control at 500 g/ha was 100%. For `CCC(C)(C)CCc1ccccc1NC(=O)c1cn(C)nc1C(F)F` [drawing 125], the pest or weed control at 500 g/ha was 100%. For `Cn1cc(C(=O)Nc2ccccc2CCC(C)(C)C)c(C(F)F)n1` [drawing 126], the pest or weed control at 500 g/ha was 100%. Work on `Cn1cc(C(=O)Nc2ccc(F)cc2CCC(C)(C)C)c(C(F)F)n1` [drawing 127] yielded a pest or weed control at 500 g/ha of 100%.

System: Botrytis cinerea
Assay: Botrytis test (bean)/protective
Format: in vivo
Settings: 48 h, bean plants, protective spray, application rate 500 g/ha, evaluation two days after inoculation, read-out: Efficacy in %
Experimental: To produce a suitable preparation of active compound, 1 part by weight of active compound is mixed with the stated amounts of solvents and emulsifier, and the concentrate is diluted with water to the desired concentration.
To test for protective activity, young plants are sprayed with the preparation of active compound at the stated application rates. After the spray coating has dried on, 2 small pieces of agar colonized by Botrytis cinerea are placed onto each leaf. The inoculated plants are placed in a dark chamber at about 20° C. and 100% relative atmospheric humidity.
Two days after the inoculation, the size of the infected areas on the leaves is evaluated. 0% means an efficacy which corresponds to that of the control, whereas an efficacy of 100% means that no infection is observed.
In the case of `Cc1nn(C)c(F)c1C(=O)Nc1ccccc1CCC(C)C` [drawing 110], the pest or weed control at 500 g/ha was 84%. Compound `Cc1nn(C)c(F)c1C(=O)Nc1ccccc1CCC(C)(C)C` [drawing 111] has a pest or weed control at 500 g/ha of 100%. `Cc1ccsc1C(=O)Nc1ccccc1CCC(C)(C)C` [drawing 112] showed a pest or weed control at 500 g/ha of 100%. For `Cc1ccccc1C(=O)Nc1ccccc1CCC(C)(C)C` [drawing 113], the pest or weed control at 500 g/ha was 87%. `CCC(C)(C)CCc1ccccc1NC(=O)c1c(C)nn(C)c1F` [drawing 114] gave a pest or weed control at 500 g/ha of 100%. Work on `CCC(C)(C)CCc1ccccc1NC(=O)c1cn(C)nc1C(F)F` [drawing 115] yielded a pest or weed control at 500 g/ha of 100%. `Cn1cc(C(=O)Nc2ccccc2CCC(C)(C)C)c(C(F)F)n1` [drawing 116] gave a pest or weed control at 500 g/ha of 100%. Work on `Cn1nc(C(F)(F)F)c(C(=O)Nc2ccccc2CCC(C)(C)C)c1F` [drawing 117] yielded a pest or weed control at 500 g/ha of 100%. `Cn1cc(C(=O)Nc2ccc(F)cc2CCC(C)(C)C)c(C(F)F)n1` [drawing 118] gave a pest or weed control at 500 g/ha of 100%.

System: Podosphaera leucotricha
Assay: Podosphaera test (apple)/protective
Format: in vivo
Settings: 240 h, apple plants, protective spray, application rate 100 g/ha, evaluation 10 days after inoculation, read-out: Efficacy in %
Experimental: To produce a suitable preparation of active compound, 1 part by weight of compound is mixed with the stated amounts of solvents and emulsifier, and the concentrate is diluted with water to the desired concentration.
To test for protective activity, young plants are sprayed with the preparation of active compound at the stated application rates. After the spray coating has dried on, the plants are inoculated with an aqueous spore suspension of the apple mildew pathogen Podosphaera leucotricha. The plants are then placed in a greenhouse at about 23° C. and a relative atmospheric humidity of about 70%.
Evaluation is carried out 10 days after the inoculation. 0% means an efficacy which corresponds to that of the control, whereas an efficacy of 100% means that no infection is observed.
In the case of `Cc1nn(C)c(F)c1C(=O)Nc1ccccc1CCC(C)C` [drawing 93], the pest or weed control at 100 g/ha was 100%. Work on `Cc1nn(C)c(F)c1C(=O)Nc1ccccc1CCC(C)(C)C` [drawing 94] yielded a pest or weed control at 100 g/ha of 100%. In the case of `Cc1ccsc1C(=O)Nc1ccccc1CCC(C)(C)C` [drawing 95], the pest or weed control at 100 g/ha was 99%. In the case of `Cc1ccccc1C(=O)Nc1ccccc1CCC(C)(C)C` [drawing 96], the pest or weed control at 100 g/ha was 97%. For `CCC(C)(C)CCc1ccccc1NC(=O)c1c(C)nn(C)c1F` [drawing 97], the pest or weed control at 100 g/ha was 99%. `CCC(C)(C)CCc1ccccc1NC(=O)c1cn(C)nc1C(F)F` [drawing 98] showed a pest or weed control at 100 g/ha of 100%. Compound `Cn1cc(C(=O)Nc2ccccc2CCC(C)(C)C)c(C(F)F)n1` [drawing 99] has a pest or weed control at 100 g/ha of 100%. With `Cn1nc(C(F)(F)F)c(C(=O)Nc2ccccc2CCC(C)(C)C)c1F` [drawing 100] the pest or weed control at 100 g/ha was 100%.

System: not listed separately
Assay: logP determination by HPLC on reversed phase column (C 18), EEC-Directive 79/831 Annex V.A8
Format: physicochemical
Settings: reversed phase HPLC column (C 18), pH 2.3, 0.1% aqueous phosphoric acid/acetonitrile gradient, 43° C.
Experimental: The determination of the logP values given in preparation examples and tables above is carried out according to EEC-Directive 79/831 Annex V.A8 by HPLC (High Performance Liquid Chromatography) on a reversed phase column (C 18). Temperature: 43° C.
Determination is carried out in the acidic range at pH 2.3 using the mobile phases 0.1% aqueous phosphoric acid and acetonitrile; linear gradient from 10% acetonitrile to 90% acetonitrile.
Calibration is carried out using unbranched alkan-2-ones (of 3 to 16 carbon atoms) whose logP values are known (determination of the logP values by retention times using linear interpolation between two successive alkanones).
`Cc1nn(C)c(F)c1C(=O)Nc1ccccc1CCC(C)C` [Example 1, 5-fluoro-1,3-dimethyl-N-[2-(3-methylbutyl)phenyl]-1H-pyrazole-4-carboxamide] showed a chromatographic logP of 3.12. For `CC(=O)Nc1ccccc1CCC(C)(C)C` [Example (III-2), N-[2-(3,3-dimethylbutyl)phenyl]acetamide], the chromatographic logP was 2.69. Work on `CC(C)(C)CCc1ccccc1N` [Example (III-3), 2-(3,3-dimethylbutyl)phenylamine hydrochloride] yielded a chromatographic logP of 2.2. `Cc1nn(C)c(F)c1C(=O)Nc1ccccc1C(=O)CC(C)C` [Example (V-1)] showed a chromatographic logP of 3.42. Work on `CC(C)(C)C#Cc1ccccc1NC(=O)c1ccccc1C(F)(F)F` [Example (VII-1), N-[2-(3,3-dimethylbut-1-ynyl)phenyl]-2-trifluoromethylbenzamide] yielded a chromatographic logP of 4.55. Compound `CC(C)CC(=O)c1ccccc1N` [Example (X-1), 1-(2-aminophenyl)-3-methylbutan-1-one] has a chromatographic logP of 2.89. With `CC(=O)Nc1ccccc1C#CC(C)(C)C` [Example (XIII-1), N-[2-(3,3-dimethylbut-1-ynyl)-phenyl]acetamide] the chromatographic logP was 3.03.

Source: US7879760B2, “Isopentyl carboxanilides for combating undesired micro-organisms” (Bayer CropScience AG, priority 2003, dated 2011)
